# Species on record: Rattus norvegicus
# Test: DrugMatrix - Regimen: Daily Repeat
# Assay type: toxicity, organism-based, Sprague-Dawley
# Set-up: regimen Daily Repeat, gender Male, age 6-8 weeks
# Settings: in vivo, po, route oral GAVAGE, […]; for ABSOLUTE BASOPHIL / ABSOLUTE EOSINOPHIL / ABSOLUTE LYMPHOCYTE / ABSOLUTE MONOCYTE / ABSOLUTE SEGMENTED NEUTROPHIL / BASOPHIL / EOSINOPHIL / ERYTHROCYTE COUNT / HEMATOCRIT / HEMOGLOBIN / LEUKOCYTE COUNT / LYMPHOCYTE / MEAN CORPUSCULAR HEMOGLOBIN / MEAN CORPUSCULAR HEMOGLOBIN CONCENTRATION / MEAN CORPUSCULAR VOLUME / MONOCYTE / NEUTROPHIL / NUCLEATED RED BLOOD CELLS / PLATELET COUNT: tissue Blood; for ALANINE AMINOTRANSFERASE / ALBUMIN / ALKALINE PHOSPHATASE / ASPARTATE AMINOTRANSFERASE / BLOOD UREA NITROGEN / CARBON DIOXIDE / CHLORIDE / CHOLESTEROL / CREATINE PHOSPHOKINASE / CREATININE / GLUCOSE / LACTATE DEHYDROGENASE / LIPASE / PHOSPHORUS / POTASSIUM / SODIUM / TOTAL BILIRUBIN / TOTAL PROTEIN / URIC ACID: tissue Plasma
# [1] = 0 mg/kg, 72 h, dose level Control, time 3 day
# [2] = 0 mg/kg, 120 h, dose level Control, time 5 day
# [3] = 12 mg/kg, 72 h, dose level Low, time 3 day
compound,measurement,setting,value
CO[C@H]1/C=C/O[C@@]2(C)Oc3c(C)c(O)c4c(O)c(c(/C=N/N5CCN(C6CCCC6)CC5)c(O)c4c3C2=O)NC(=O)/C(C)=C\C=C\[C@H](C)[C@H](O)[C@@H](C)[C@@H](O)[C@@H](C)[C@H](OC(C)=O)[C@@H]1C [RIFAPENTINE],ABSOLUTE BASOPHIL,[1],0 CELLS/uL
same,ABSOLUTE EOSINOPHIL,[1],179.67 CELLS/uL
same,ABSOLUTE LYMPHOCYTE,[1],11440.17 CELLS/uL
same,ABSOLUTE MONOCYTE,[1],128.83 CELLS/uL
same,ABSOLUTE SEGMENTED NEUTROPHIL,[1],1051.33 CELLS/uL
same,BASOPHIL,[1],0%
same,EOSINOPHIL,[1],1.33%
same,ERYTHROCYTE COUNT,[1],5.53 x10E6/uL
same,HEMATOCRIT,[1],34.75%
same,HEMOGLOBIN,[1],12.88 G/DL
same,LEUKOCYTE COUNT,[1],12.8 x10E3/uL
same,LYMPHOCYTE,[1],89.5%
same,MEAN CORPUSCULAR HEMOGLOBIN,[1],23.38 pg
same,MEAN CORPUSCULAR HEMOGLOBIN CONCENTRATION,[1],37.12 G/DL
same,MEAN CORPUSCULAR VOLUME,[1],62.88 fL
same,MONOCYTE,[1],1%
same,NEUTROPHIL,[1],8.17%
same,NUCLEATED RED BLOOD CELLS,[1],0 /100WBC
same,PLATELET COUNT,[1],1292 x10E3/uL
same,ALANINE AMINOTRANSFERASE,[1],58.67 u/L
same,ALBUMIN,[1],4.25 G/DL
same,ALKALINE PHOSPHATASE,[1],437.83 u/L
same,ASPARTATE AMINOTRANSFERASE,[1],85.17 u/L
same,BLOOD UREA NITROGEN,[1],14.17 mg/dL
same,CARBON DIOXIDE,[1],28.67 mmol/L
same,CHLORIDE,[1],102.17 MEQ/L
same,CHOLESTEROL,[1],68.5 mg/dL
same,CREATINE PHOSPHOKINASE,[1],271.83 u/L
same,CREATININE,[1],0.2 mg/dL
same,GLUCOSE,[1],156.67 mg/dL
same,LACTATE DEHYDROGENASE,[1],112.33 u/L
same,LIPASE,[1],9.33 u/L
same,PHOSPHORUS,[1],11.1 mg/dL
same,POTASSIUM,[1],6.46 MEQ/L
same,SODIUM,[1],144.37 MEQ/L
same,TOTAL BILIRUBIN,[1],0.23 mg/dL
same,TOTAL PROTEIN,[1],5.8 G/DL
same,URIC ACID,[1],1.55 mg/dL
same,ABSOLUTE BASOPHIL,[2],0 CELLS/uL
same,ABSOLUTE EOSINOPHIL,[2],87 CELLS/uL
same,ABSOLUTE LYMPHOCYTE,[2],14743.5 CELLS/uL
same,ABSOLUTE MONOCYTE,[2],187 CELLS/uL
same,ABSOLUTE SEGMENTED NEUTROPHIL,[2],1499.17 CELLS/uL
same,BASOPHIL,[2],0%
same,EOSINOPHIL,[2],0.5%
same,ERYTHROCYTE COUNT,[2],5.84 x10E6/uL
same,HEMATOCRIT,[2],36.3%
same,HEMOGLOBIN,[2],13.55 G/DL
same,LEUKOCYTE COUNT,[2],16.52 x10E3/uL
same,LYMPHOCYTE,[2],89.5%
same,MEAN CORPUSCULAR HEMOGLOBIN,[2],23.25 pg
same,MEAN CORPUSCULAR HEMOGLOBIN CONCENTRATION,[2],37.35 G/DL
same,MEAN CORPUSCULAR VOLUME,[2],62.27 fL
same,MONOCYTE,[2],1.17%
same,NEUTROPHIL,[2],8.83%
same,NUCLEATED RED BLOOD CELLS,[2],0.17 /100WBC
same,PLATELET COUNT,[2],1233.5 x10E3/uL
same,ALANINE AMINOTRANSFERASE,[2],62.5 u/L
same,ALBUMIN,[2],4.17 G/DL
same,ALKALINE PHOSPHATASE,[2],464.33 u/L
same,ASPARTATE AMINOTRANSFERASE,[2],99.67 u/L
same,BLOOD UREA NITROGEN,[2],14.33 mg/dL
same,CARBON DIOXIDE,[2],26 mmol/L
same,CHLORIDE,[2],102.33 MEQ/L
same,CHOLESTEROL,[2],60.67 mg/dL
same,CREATINE PHOSPHOKINASE,[2],402.5 u/L
same,CREATININE,[2],0.22 mg/dL
same,GLUCOSE,[2],173.5 mg/dL
same,LACTATE DEHYDROGENASE,[2],518.17 u/L
same,LIPASE,[2],10.83 u/L
same,PHOSPHORUS,[2],11.4 mg/dL
same,POTASSIUM,[2],6.13 MEQ/L
same,SODIUM,[2],142.63 MEQ/L
same,TOTAL BILIRUBIN,[2],0.17 mg/dL
same,TOTAL PROTEIN,[2],6.1 G/DL
same,URIC ACID,[2],1.97 mg/dL
same,ABSOLUTE BASOPHIL,[3],0 CELLS/uL
same,ABSOLUTE EOSINOPHIL,[3],44.67 CELLS/uL
same,ABSOLUTE LYMPHOCYTE,[3],14914 CELLS/uL
same,ABSOLUTE MONOCYTE,[3],225.33 CELLS/uL
same,ABSOLUTE SEGMENTED NEUTROPHIL,[3],1216 CELLS/uL
same,BASOPHIL,[3],0%
same,EOSINOPHIL,[3],0.33%
same,ERYTHROCYTE COUNT,[3],5.83 x10E6/uL
same,HEMATOCRIT,[3],34.83%
same,HEMOGLOBIN,[3],12.73 G/DL
same,LEUKOCYTE COUNT,[3],16.4 x10E3/uL
same,LYMPHOCYTE,[3],91%
same,MEAN CORPUSCULAR HEMOGLOBIN,[3],21.83 pg
same,MEAN CORPUSCULAR HEMOGLOBIN CONCENTRATION,[3],36.57 G/DL
same,MEAN CORPUSCULAR VOLUME,[3],59.7 fL
same,MONOCYTE,[3],1.33%
same,NEUTROPHIL,[3],7.33%
same,NUCLEATED RED BLOOD CELLS,[3],0 /100WBC
same,PLATELET COUNT,[3],1540.67 x10E3/uL
same,ALANINE AMINOTRANSFERASE,[3],75 u/L
same,ALBUMIN,[3],4.13 G/DL
same,ALKALINE PHOSPHATASE,[3],400.33 u/L
same,ASPARTATE AMINOTRANSFERASE,[3],93.33 u/L
same,BLOOD UREA NITROGEN,[3],15 mg/dL
same,CARBON DIOXIDE,[3],28 mmol/L
same,CHLORIDE,[3],102 MEQ/L
same,CHOLESTEROL,[3],69.33 mg/dL
same,CREATINE PHOSPHOKINASE,[3],485.67 u/L
same,CREATININE,[3],0.15 mg/dL
same,GLUCOSE,[3],166.67 mg/dL
same,LACTATE DEHYDROGENASE,[3],138 u/L
same,LIPASE,[3],10 u/L
same,PHOSPHORUS,[3],11.53 mg/dL
same,POTASSIUM,[3],6.47 MEQ/L
same,SODIUM,[3],141.97 MEQ/L
same,TOTAL BILIRUBIN,[3],0.23 mg/dL
same,TOTAL PROTEIN,[3],5.43 G/DL
same,URIC ACID,[3],1.6 mg/dL

# — ChEMBL document CHEMBL3885881, “DrugMatrix”
